From patent publication US7960339B2, “Antimicrobial peptides” (Österreichische Akademie der Wissenschaften, priority 2006, dated 2011)
Peptide text beside a SMILES is read from it. * marks the point of attachment. Dicyclohexylacetyl = O=C(C(C1CCCCC1)C1CCCCC1)*; Butanoyl(2,2-Me2) = CCC(C)(C)C(=O)*; Octanoyl(6-Me) = CCC(C)CCCCC(=O)*; X1 = CCCCC(CC)C(=O)*

System: C. neoformans ATCC 32045
Assay type: cell-based
Settings: ATCC 32045, 72 h
Procedure: C. neoformans ATCC 32045 cultures were maintained on yeast medium (YM; Difco Laboratories, Detroit, Mich.) agar plates at 4° C. Prior to the assay, the cultures were grown on agar plates and incubated for 72 hrs at 26° C. Two colonies of these newly grown fungal cultures were then inoculated in 5 ml of 2×YM broth, vortexed, and diluted 10-fold in 2×YM broth, for an approximate final assay concentration of 1×105 to 5×10^5 CFU/ml. In 96-well tissue culture plates, fungal suspensions in 2×YM broth were added to the peptides dispensed at concentrations ranging from 1 mg/ml to 1 μg/ml derived from serial twofold dilutions in sterile water. The plates were then incubated for 72 hrs at 26° C. The relative percent growth of the fungi found for each test sample was determined by the optical density at 620 nm (OD620) by using a Titertek Multiskan Plus apparatus. […] The IC50 were calculated by using a sigmoidal curve-fitting software program (Graphpad Prism; ISI Software, San Diego, Calif.).

Compound	average IC50 [µg/mL]	average MIC [µg/mL]
N=C(N)NCCC[C@H](NC(=O)[C@H](CCCNC(=N)N)NC(=O)[C@H](Cc1c[nH]c2ccccc12)NC(=O)[C@H](CCCNC(=N)N)NC(=O)[C@H](CCCNC(=N)N)NC(=O)[C@H](CCCNC(=N)N)NC(=O)[C@H](Cc1c[nH]c2ccccc12)NC(=O)[C@H](Cc1ccccc1)NC(=O)[C@@H]1CCCN1)C(N)=O [VS1-33, PFWRRRWRR-NH2] (H-PFWRRRWRR-NH2; N-terminus assumed)	9	32
CC[C@H](C)[C@H](NC(=O)[C@H](CCCNC(=N)N)NC(=O)[C@H](CCCCN)NC(=O)[C@H](Cc1c[nH]c2ccccc12)NC(=O)[C@@H](N)CCCNC(=N)N)C(=O)N[C@@H](CC(N)=O)C(=O)N[C@@H](CCCNC(=N)N)C(=O)N[C@@H](CCC(N)=O)C(=O)N[C@@H](Cc1c[nH]c2ccccc12)C(=O)N[C@@H](Cc1ccccc1)C(N)=O [VS1-16, RWKRINRQWF-NH2] (H-RWKRINRQWF-NH2; N-terminus assumed)	13	32
CC[C@H](C)[C@H](NC(=O)[C@H](CC(N)=O)NC(=O)[C@H](CCCNC(=N)N)NC(=O)[C@H](Cc1c[nH]c2ccccc12)NC(=O)[C@@H](N)Cc1ccccc1)C(=O)N[C@@H](CCCNC(=N)N)C(=O)N[C@@H](CCCCN)C(=O)N[C@@H](Cc1c[nH]c2ccccc12)C(=O)N[C@@H](CCCNC(=N)N)C(N)=O [VS1-20, FWRNIRKWR-NH2] (H-FWRNIRKWR-NH2; N-terminus assumed)	4	16
CC[C@H](C)[C@H](NC(=O)[C@H](CCCNC(=N)N)NC(=O)[C@@H](NC(=O)[C@H](CCCNC(=N)N)NC(=O)[C@@H](N)CCCNC(=N)N)[C@@H](C)CC)C(=O)N[C@@H](CC(N)=O)C(=O)N[C@@H](CCCNC(=N)N)C(=O)N[C@@H](CCC(N)=O)C(=O)N[C@@H](Cc1c[nH]c2ccccc12)C(=O)N[C@@H](Cc1ccccc1)C(N)=O [VS1-14, RRIRINRQWF-NH2] (H-RRIRINRQWF-NH2; N-terminus assumed)	12	32
CC[C@H](C)[C@H](NC(=O)[C@H](CCCNC(=N)N)NC(=O)[C@H](Cc1c[nH]c2ccccc12)NC(=O)[C@@H](N)Cc1ccccc1)C(=O)N[C@@H](CCCNC(=N)N)C(=O)N[C@@H](CCCCN)C(=O)N[C@@H](Cc1c[nH]c2ccccc12)C(=O)N[C@@H](CCCNC(=N)N)C(N)=O [VS1-21, FWRIRKWR-NH2] (H-FWRIRKWR-NH2; N-terminus assumed)	4	16
CC[C@H](C)[C@H](NC(=O)[C@H](CCCNC(=N)N)NC(=O)[C@H](CCC(N)=O)NC(=O)[C@H](CCCNC(=N)N)NC(=O)[C@H](Cc1c[nH]c2ccccc12)NC(=O)[C@H](Cc1ccccc1)NC(=O)[C@@H]1CCCN1)C(=O)N[C@@H](CCCNC(=N)N)C(=O)N[C@@H](CCCNC(=N)N)C(N)=O [VS1-25, PFWRQRIRR-NH2] (H-PFWRQRIRR-NH2; N-terminus assumed)	6	32
CC[C@H](C)[C@H](NC(=O)[C@H](CCCNC(=N)N)NC(=O)[C@@H](NC(=O)[C@H](CC(N)=O)NC(=O)[C@H](CCCNC(=N)N)NC(=O)[C@H](CCC(N)=O)NC(=O)[C@H](Cc1c[nH]c2ccccc12)NC(=O)[C@@H](N)Cc1ccccc1)[C@@H](C)CC)C(=O)N[C@@H](CCCNC(=N)N)C(=O)N[C@@H](CCCNC(=N)N)C(N)=O [VS1-13, FWQRNIRIRR-NH2] (H-FWQRNIRIRR-NH2; N-terminus assumed)	8	32
CC[C@H](C)[C@H](NC(=O)[C@H](CCCNC(=N)N)NC(=O)[C@H](CCCCN)NC(=O)[C@H](CCCNC(=N)N)NC(=O)[C@H](Cc1c[nH]c2ccccc12)NC(=O)[C@H](Cc1ccccc1)NC(=O)[C@@H]1CCCN1)C(=O)N[C@@H](CCCNC(=N)N)C(=O)N[C@@H](CCCNC(=N)N)C(N)=O [VS1-28, PFWRKRIRR-NH2] (H-PFWRKRIRR-NH2; N-terminus assumed)	8	32
CC[C@H](C)[C@H](NC(=O)[C@H](CC(N)=O)NC(=O)[C@H](CCCNC(=N)N)NC(=O)[C@H](CCC(N)=O)NC(=O)[C@H](Cc1c[nH]c2ccccc12)NC(=O)[C@H](Cc1ccccc1)NC(=O)[C@@H]1CCCN1)C(=O)N[C@@H](CCCNC(=N)N)C(=O)N[C@@H](CCCCN)C(=O)N[C@@H](Cc1c[nH]c2ccccc12)C(=O)N[C@@H](CCCNC(=N)N)C(N)=O [VS1-19, PFWQRNIRKWR-NH2] (H-PFWQRNIRKWR-NH2; N-terminus assumed)	3	8

Further lines, results first:

average IC50 [µg/mL]	average MIC [µg/mL]	Compound
11	62	CCC(C)CCCCC(=O)N[C@@H](Cc1ccccc1)C(=O)N[C@@H](Cc1c[nH]c2ccccc12)C(=O)N[C@@H](CCCNC(=N)N)C(=O)N[C@@H](CCCNC(=N)N)C(=O)N[C@@H](Cc1ccccc1)C(=O)N[C@@H](Cc1c[nH]c2ccccc12)C(=O)N[C@@H](CCCNC(=N)N)C(=O)N[C@@H](CCCNC(=N)N)C(N)=O (stereo partly drawn) [VS1-63, 6-methyloctanoyl FWRRFWRR-NH2] ({Octanoyl(6-Me)}-FWRRFWRR-NH2)
2	4	CC[C@H](C)[C@H](NC(=O)[C@H](CCCNC(=N)N)NC(=O)[C@@H](NC(=O)[C@H](CCCNC(=N)N)NC(=O)[C@H](Cc1c[nH]c2ccccc12)NC(=O)[C@H](Cc1ccccc1)NC(=O)C(C)(C)CC)[C@@H](C)CC)C(=O)N[C@@H](CCCNC(=N)N)C(=O)N[C@@H](CCCNC(=N)N)C(N)=O [VS1-57, 2,2-dimethylbutanoyl FWRIRIRR-NH2] ({Butanoyl(2,2-Me2)}-FWRIRIRR-NH2)
4	16	CC[C@H](C)[C@H](NC(=O)[C@H](CC(N)=O)NC(=O)[C@H](CCCNC(=N)N)NC(=O)[C@H](CCC(N)=O)NC(=O)[C@H](Cc1c[nH]c2ccccc12)NC(=O)[C@H](Cc1ccccc1)NC(=O)C(C1CCCCC1)C1CCCCC1)C(=O)N[C@@H](CCCNC(=N)N)C(=O)N[C@@H](CCCCN)C(=O)N[C@@H](Cc1c[nH]c2ccccc12)C(=O)N[C@@H](CCCNC(=N)N)C(N)=O [VS1-44, dicyclohexylacetyl FWQRNIRKWR-NH2] (Dicyclohexylacetyl-FWQRNIRKWR-NH2)
6	16	CCC(C)CCCCC(=O)N[C@@H](Cc1ccccc1)C(=O)N[C@@H](Cc1c[nH]c2ccccc12)C(=O)N[C@@H](CCC(N)=O)C(=O)N[C@@H](CCCNC(=N)N)C(=O)N[C@@H](CC(N)=O)C(=O)N[C@H](C(=O)N[C@@H](CCCNC(=N)N)C(=O)N[C@@H](CCCCN)C(=O)N[C@@H](Cc1c[nH]c2ccccc12)C(=O)N[C@@H](CCCNC(=N)N)C(N)=O)[C@@H](C)CC (stereo partly drawn) [VS1-43, 6-methyloctanoyl FWQRNIRKWR-NH2] ({Octanoyl(6-Me)}-FWQRNIRKWR-NH2)
3	8	CC[C@H](C)[C@H](NC(=O)[C@H](CCCNC(=N)N)NC(=O)[C@@H](NC(=O)[C@H](CCCNC(=N)N)NC(=O)[C@H](Cc1c[nH]c2ccccc12)NC(=O)[C@H](Cc1ccccc1)NC(=O)[C@@H]1CCCN1C(=O)C(C1CCCCC1)C1CCCCC1)[C@@H](C)CC)C(=O)N[C@@H](CCCNC(=N)N)C(=O)N[C@@H](CCCNC(=N)N)C(N)=O [VS1-54, dicyclohexylacetyl PFWRIRIRR-NH2] (Dicyclohexylacetyl-PFWRIRIRR-NH2)
3	8	CCCCC(CC)C(=O)N1CCC[C@H]1C(=O)N[C@@H](Cc1ccccc1)C(=O)N[C@@H](Cc1c[nH]c2ccccc12)C(=O)N[C@@H](CCCNC(=N)N)C(=O)N[C@H](C(=O)N[C@@H](CCCNC(=N)N)C(=O)N[C@H](C(=O)N[C@@H](CCCNC(=N)N)C(=O)N[C@@H](CCCNC(=N)N)C(N)=O)[C@@H](C)CC)[C@@H](C)CC (stereo partly drawn) [VS1-51, 2-ethylhexanoyl PFWRIRIRR-NH2] (X1-PFWRIRIRR-NH2)
2	4	CC[C@H](C)[C@H](NC(=O)[C@H](CCCNC(=N)N)NC(=O)[C@H](CCCCN)NC(=O)[C@H](Cc1c[nH]c2ccccc12)NC(=O)[C@H](CCCNC(=N)N)NC(=O)C(C1CCCCC1)C1CCCCC1)C(=O)N[C@@H](CC(N)=O)C(=O)N[C@@H](CCCNC(=N)N)C(=O)N[C@@H](CCC(N)=O)C(=O)N[C@@H](Cc1c[nH]c2ccccc12)C(=O)N[C@@H](Cc1ccccc1)C(N)=O [VS1-49, dicyclohexylacetyl RWKRINRQWF-NH2] (Dicyclohexylacetyl-RWKRINRQWF-NH2)
6	32	N=C(N)NCCC[C@H](NC(=O)[C@H](CCCNC(=N)N)NC(=O)[C@H](Cc1c[nH]c2ccccc12)NC(=O)[C@H](Cc1ccccc1)NC(=O)[C@H](Cc1c[nH]c2ccccc12)NC(=O)[C@H](CCCNC(=N)N)NC(=O)[C@@H](N)CCCNC(=N)N)C(=O)O [VS1-39, RRWFWRR-OH] (H-RRWFWRR-OH; N-terminus assumed)
2	8	CCC(C)CCCCC(=O)N[C@@H](CCCNC(=N)N)C(=O)N[C@@H](Cc1c[nH]c2ccccc12)C(=O)N[C@@H](CCCCN)C(=O)N[C@@H](CCCNC(=N)N)C(=O)N[C@H](C(=O)N[C@@H](CC(N)=O)C(=O)N[C@@H](CCCNC(=N)N)C(=O)N[C@@H](CCC(N)=O)C(=O)N[C@@H](Cc1c[nH]c2ccccc12)C(=O)N[C@@H](Cc1ccccc1)C(N)=O)[C@@H](C)CC (stereo partly drawn) [VS1-48, 6-methyloctanoyl RWKRINRQWF-NH2] ({Octanoyl(6-Me)}-RWKRINRQWF-NH2)
